Data reported in patent publication US20240327397A1, “Pesticidally Active Fused Bicyclic Heteroaromatic Compounds” (SYNGENTA CROP PROTECTION AG, priority 2021, published 2024).

What was measured:
Assay type in all cases: in vivo
[1] = test system: Plutella xylostella (Diamond Back Moth); test: Example B3: Plutella xylostella, artificial diet in 24-well plates, eggs; conditions: 192 h, application rate 200 ppm, 8 days after infestation, versus untreated, read-out: effect in at least one of the two categories (mortality or growth inhibition)
Description: Example B3: Plutella xylostella (Diamond Back Moth)
24-well microtiter plates with artificial diet were treated with aqueous test solutions prepared from 10'000 ppm DMSO stock solutions by pipetting. After drying, Plutella eggs were pipetted through a plastic stencil onto a gel blotting paper and the plate was closed with it. The samples were assessed for mortality and growth inhibition in comparison to untreated samples 8 days after infestation.

[2] = test system: Diabrotica Balteata (Corn Root Worm); test: Example B2: Diabrotica balteata, sprayed maize sprouts on agar, L2 larvae; conditions: 96 h, application rate 200 ppm, 4 days after infestation, versus untreated, read-out: effect in at least one of the two categories (mortality or growth inhibition)
Description: Example B2: Diabrotica Balteata (Corn Root Worm)
Maize sprouts placed onto an agar layer in 24-well microtiter plates were treated with aqueous test solutions prepared from 10'000 ppm DMSO stock solutions by spraying. After drying, the plates were infested with L2 larvae (6 to 10 per well). The samples were assessed for mortality and growth inhibition in comparison to untreated samples 4 days after infestation.

[3] = test system: Frankliniella occidentalis (Western Flower Thrips); test: Example B5: Frankliniella occidentalis, feeding/contact activity, sunflower leaf discs; conditions: foliar, 168 h, application rate 200 ppm, population of mixed ages, 7 days after infestation
Description: Example B5: Frankliniella occidentalis (Western Flower Thrips). Feedinq/Contact Activity
Sunflower leaf discs were placed on agar in 24-well microtiter plates and sprayed with aqueous test solutions prepared from 10'000 DMSO stock solutions. After drying the leaf discs were infested with a Frankliniella population of mixed ages. The samples were assessed for mortality 7 days after infestation.

[4] = test system: Spodoptera littoralis (Eqyptian Cotton Leaf Worm); test: Example B4: Spodoptera littoralis, sprayed cotton leaf discs, L1 larvae; conditions: foliar, 72 h, application rate 200 ppm, 3 days after infestation, versus untreated, read-out: control (at least one of mortality, anti-feedant effect, growth inhibition)
Description: Example B4: Spodoptera littoralis (Eqyptian Cotton Leaf Worm)
Cotton leaf discs were placed onto agar in 24-well microtiter plates and sprayed with aqueous test solutions prepared from 10'000 ppm DMSO stock solutions. After drying the leaf discs were infested with five L1 larvae. The samples were assessed for mortality, anti-feeding effect, and growth inhibition in comparison to untreated samples 3 days after infestation. Control of Spodoptera littoralis by a test sample is given when at least one of the categories mortality, anti-feedant effect, and growth inhibition is higher than the untreated sample.

[5] = test system: Chilo suppressalis (Striped Rice Stemborer); test: Example B1: Chilo suppressalis, artificial diet in 24-well plates, L2 larvae; conditions: 144 h, application rate 200 ppm, 6 days after infestation, versus untreated, read-out: control (at least one of mortality, anti-feedant effect, growth inhibition)
Description: Example B1: Chilo suppressalis (Striped Rice Stemborer)
24-well microtiter plates with artificial diet were treated with aqueous test solutions prepared from 10'000 ppm DMSO stock solutions by pipetting. After drying, the plates were infested with L2 larvae (6-8 per well). The samples were assessed for mortality, anti-feeding effect, and growth inhibition in comparison to untreated samples 6 days after infestation. Control of Chilo suppressalis by a test sample is given when at least one of the categories mortality, anti-feedant effect, and growth inhibition is higher than the untreated sample.

[6] = test system: Myzus persicae (Green Peach Aphid); test: Example B7: Myzus persicae, intrinsic activity, sucrose solution under Parafilm; conditions: 120 h, test rate 12 ppm, 5 days after infestation
Description: Example B7: Myzus persicae (Green Peach Aphid). Intrinsic Activity
Test compounds prepared from 10'000 ppm DMSO stock solutions were applied by pipette into 24-well microtiter plates and mixed with sucrose solution. The plates were closed with a stretched Parafilm. A plastic stencil with 24 holes was placed onto the plate and infested pea seedlings were placed directly on the Parafilm. The infested plate was closed with a gel blotting paper and another plastic stencil and then turned upside down. The samples were assessed for mortality 5 days after infestation.

[7] = test system: Myzus persicae (Green Peach Aphid); test: Example B6: Myzus persicae, feeding/contact activity, sunflower leaf discs; conditions: foliar, 144 h, application rate 200 ppm, population of mixed ages, 6 days after infestation
Description: Example B6: Myzus persicae (Green Peach Aphid). Feedinq/Contact Activity
Sunflower leaf discs were placed onto agar in a 24-well microtiter plate and sprayed with aqueous test solutions prepared from 10'000 ppm DMSO stock solutions. After drying, the leaf discs were infested with an aphid population of mixed ages. The samples were assessed for mortality 6 days after infestation.

C[C@H](NC1=NS(C)(=O)=Nc2c(Br)cc(Br)cc21)c1ncnn1-c1ncccn1 (stereo partly drawn) [P1, 8,10-dibromo-3-methyl-3-oxo-N-[(1S)-1-(2-pyrimidin-2-yl-1,2,4-triazol-3-yl)ethyl]-3λ^6-thia-2,4-diazabicyclo[4.4.0]deca-1(6),2,4,7,9-pentaen-5-amine]
≥ 80%: percent effect (mortality or growth inhibition) at 200 ppm [1] | percent effect (mortality or growth inhibition) at 200 ppm [2] | mortality at 200 ppm [3] | percent control (mortality, anti-feedant effect or growth inhibition) at 200 ppm [4] | percent control (mortality, anti-feedant effect or growth inhibition) at 200 ppm [5] | mortality at 12 ppm [6]

C[C@H](NC1=NS(C)(=O)=Nc2c(Br)cc(Br)cc21)c1nccnc1-c1cnccn1 (stereo partly drawn) [P10, 8,10-dibromo-3-methyl-3-oxo-N-[(1S)-1-(3-pyrazin-2-ylpyrazin-2-yl)ethyl]-3λ^6-thia-2,4-diazabicyclo[4.4.0]deca-1(6),2,4,7,9-pentaen-5-amine]
≥ 80%: percent effect (mortality or growth inhibition) at 200 ppm [1] | percent effect (mortality or growth inhibition) at 200 ppm [2] | mortality at 200 ppm [3] | percent control (mortality, anti-feedant effect or growth inhibition) at 200 ppm [4] | mortality at 200 ppm [7] | percent control (mortality, anti-feedant effect or growth inhibition) at 200 ppm [5] | mortality at 12 ppm [6]
